# Target: LRRK2 G2019S (Homo sapiens, UniProt Q5S007, G2019S)
# Assay: ADP-Glo Kinase Assay, LRRK2 G2019S
# Type: biochemical
# Settings: 120 min kinase reaction at 25 °C, 10 concentrations, read-out: IC50 (LRRK2 G2019S_ADP-Glo Assay)
# Description: Kinase inhibition assays were performed using the ADP-Glo^TM Kinase Assay (Promega) in 384-well format. A 2× ATP/substrate solution and a 2× kinase solution was prepared in kinase reaction buffer. Compounds were dispensed into the assay plates (100 nL per well) using an Echo 655 acoustic dispenser. Subsequently, 5 μL of the 2× kinase solutions were added to each well, followed by centrifugation at 1000 rpm for 1 min and incubation at 25 °C for 10 min. The kinase reactions were initiated by the addition of 5 μL of the 2× ATP/substrate solution.
# Following the kinase reaction, 5 μL of ADP-Glo reagent was added to each well. Plates were centrifuged at 1000 rpm for 1 min and incubated at 25 °C for 60 min to terminate the reaction and deplete unconsumed ATP. […] Luminescence signals were recorded using a BMG plate reader.
# The percentage inhibition (inhibition%) was calculated as: […]
# IC50 values were determined by nonlinear regression of the inhibition% versus the logarithm of compound concentrations using a four-parameter sigmoidal dose–response model (variable slope) in GraphPad Prism 10.0. […]
# Ten different concentrations were tested for each compound. […] Residual kinase activity was determined based on luminescence readouts, and the data were normalized to vehicle (100% activity) and complete inhibition controls (0% activity). […]
# Chain of LRRK2 G2019S (Q5S007 whole entry G2019S): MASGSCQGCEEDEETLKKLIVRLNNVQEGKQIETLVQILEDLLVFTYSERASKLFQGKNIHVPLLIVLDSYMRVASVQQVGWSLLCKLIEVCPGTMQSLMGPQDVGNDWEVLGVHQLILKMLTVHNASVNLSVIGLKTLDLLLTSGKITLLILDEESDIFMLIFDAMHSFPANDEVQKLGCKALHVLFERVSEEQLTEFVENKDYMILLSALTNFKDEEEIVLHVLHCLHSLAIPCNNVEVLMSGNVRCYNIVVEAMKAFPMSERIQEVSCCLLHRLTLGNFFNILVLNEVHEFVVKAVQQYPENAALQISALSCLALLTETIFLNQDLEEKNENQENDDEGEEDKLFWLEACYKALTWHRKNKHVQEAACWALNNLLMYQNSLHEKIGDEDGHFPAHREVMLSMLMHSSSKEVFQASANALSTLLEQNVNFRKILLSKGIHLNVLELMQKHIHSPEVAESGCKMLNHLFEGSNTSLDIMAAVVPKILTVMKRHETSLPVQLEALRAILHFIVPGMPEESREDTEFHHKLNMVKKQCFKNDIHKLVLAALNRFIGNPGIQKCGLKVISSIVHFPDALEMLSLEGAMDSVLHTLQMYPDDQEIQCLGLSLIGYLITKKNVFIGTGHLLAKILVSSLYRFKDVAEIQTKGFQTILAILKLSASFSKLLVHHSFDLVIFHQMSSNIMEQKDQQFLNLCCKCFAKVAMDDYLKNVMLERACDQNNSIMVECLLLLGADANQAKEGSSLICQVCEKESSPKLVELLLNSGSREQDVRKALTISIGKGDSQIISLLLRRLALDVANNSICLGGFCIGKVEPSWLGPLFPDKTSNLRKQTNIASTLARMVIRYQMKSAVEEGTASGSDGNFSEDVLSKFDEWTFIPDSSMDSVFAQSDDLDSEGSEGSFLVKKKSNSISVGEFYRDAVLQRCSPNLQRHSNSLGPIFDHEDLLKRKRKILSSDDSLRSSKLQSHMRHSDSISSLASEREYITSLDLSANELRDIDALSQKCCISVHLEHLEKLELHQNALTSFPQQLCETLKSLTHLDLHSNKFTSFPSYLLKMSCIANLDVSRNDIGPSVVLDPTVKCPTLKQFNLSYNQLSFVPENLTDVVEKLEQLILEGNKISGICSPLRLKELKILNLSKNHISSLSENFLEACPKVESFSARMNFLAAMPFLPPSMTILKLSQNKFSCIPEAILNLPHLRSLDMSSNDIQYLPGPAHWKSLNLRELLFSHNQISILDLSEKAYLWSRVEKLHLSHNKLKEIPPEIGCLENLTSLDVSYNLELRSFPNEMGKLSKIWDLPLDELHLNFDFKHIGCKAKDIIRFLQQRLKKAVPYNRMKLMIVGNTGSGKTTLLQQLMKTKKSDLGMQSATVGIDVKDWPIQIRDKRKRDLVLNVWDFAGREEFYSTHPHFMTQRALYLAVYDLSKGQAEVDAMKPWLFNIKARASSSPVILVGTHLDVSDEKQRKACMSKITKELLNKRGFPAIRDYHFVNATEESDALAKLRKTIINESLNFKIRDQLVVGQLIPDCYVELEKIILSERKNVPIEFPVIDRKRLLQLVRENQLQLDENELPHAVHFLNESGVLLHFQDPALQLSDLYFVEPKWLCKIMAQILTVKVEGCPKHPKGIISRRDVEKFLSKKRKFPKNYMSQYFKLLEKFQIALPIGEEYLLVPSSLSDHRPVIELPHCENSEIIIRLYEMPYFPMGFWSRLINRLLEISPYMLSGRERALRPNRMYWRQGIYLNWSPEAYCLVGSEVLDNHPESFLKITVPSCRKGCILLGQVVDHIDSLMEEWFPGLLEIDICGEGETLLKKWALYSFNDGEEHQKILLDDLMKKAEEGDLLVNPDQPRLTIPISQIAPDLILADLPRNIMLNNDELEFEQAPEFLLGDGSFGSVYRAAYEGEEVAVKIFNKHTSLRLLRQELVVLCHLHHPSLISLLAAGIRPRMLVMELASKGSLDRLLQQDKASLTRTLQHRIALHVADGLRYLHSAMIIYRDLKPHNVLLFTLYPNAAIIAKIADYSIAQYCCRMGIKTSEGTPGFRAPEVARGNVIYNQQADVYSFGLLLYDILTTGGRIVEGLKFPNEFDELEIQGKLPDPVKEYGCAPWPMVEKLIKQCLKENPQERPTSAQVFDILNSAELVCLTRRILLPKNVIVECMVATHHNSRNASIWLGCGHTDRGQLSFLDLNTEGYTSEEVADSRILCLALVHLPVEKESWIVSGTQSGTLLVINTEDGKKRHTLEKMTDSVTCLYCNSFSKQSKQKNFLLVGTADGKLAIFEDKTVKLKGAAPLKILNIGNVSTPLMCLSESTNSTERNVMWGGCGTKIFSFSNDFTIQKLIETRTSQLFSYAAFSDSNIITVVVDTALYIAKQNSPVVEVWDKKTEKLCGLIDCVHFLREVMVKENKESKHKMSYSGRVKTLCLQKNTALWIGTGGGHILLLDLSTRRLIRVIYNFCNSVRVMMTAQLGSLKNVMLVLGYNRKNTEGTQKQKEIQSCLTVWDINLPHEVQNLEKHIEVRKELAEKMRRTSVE
compound,measurement,value
COc1cc(C(=O)N2CCC(N3CCN(C)CC3)CC2)ccc1Nc1ncc2c(n1)N(C)c1ccccc1C(=O)N2C [LRRK2-IN-1],IC50,5.25 nM
